Like-named read-outs stand apart in the source and are kept apart here.
Tests used:
[1] = test system: Enterococcus faecalis EFS.201 (ATCC 49452); assay type: cell-based
Method: (§1) Compounds according to Formula I were tested for antimicrobial activity against a panel of organisms. Aerobic organisms, Staphylococcus aureus, Enterococcus faecalis and E. faecium, were tested by broth microdilution according to Clinical and Laboratory Standards Institute (CLSI) document M7-A7 (Clinical and Laboratory Standards Institute. Methods for Dilution Antimicrobial Susceptibility Tests for Bacteria that Grow Aerobically; Approved Standard—Seventh Edition. CLSI document M7-A7 [ISBN 1-56238-587-9]. Clinical and Laboratory Standards Institute, 940 West Valley Road, Suite 1400, Wayne, Pa. 19087-1898 USA, 2006) with modifications as described below. Mueller Hinton Broth (MHBc) was supplemented with 50 mg/L calcium (equivalent to human physiological levels of calcium) and assay plates were incubated 18-20 hours at 37° C. with aeration (200 rpm).
(§2) In all cases the final concentration of dimethyl sulfoxide incubated with cells is less than or equal to 1%. For minimum inhibitory concentration (MIC) calculations, 2-fold dilutions of compounds were added to wells of a microtiter plate containing 5×10^5 bacteria in a final volume of 100 μL of media. Following incubation, (18-20 hours at 37° C. with aeration at 200 rpm) growth was confirmed visually by placing plates over a viewing apparatus (stand with a mirror underneath) and then the optical density (OD600) was measured using a SpectraMax 340PC^384 plate reader. Growth was defined as turbidity that could be detected with the naked eye or achieving minimum OD600of 0.1. MIC values (in μg/mL) were defined as the lowest concentration producing no visible turbidity.

[2] = test system: Enterococcus faecalis EFS.312, Daptomycin resistant mutant (EFA); assay type: cell-based; details: MHBc with 50 mg/L calcium, 18-20 hours at 37° C.
Method: as §1, §2

[3] = test system: Enterococcus faecium EFM.14 (ATCC 6569); assay type: cell-based
Method: as §1, §2

[4] = test system: Enterococcus faecium EFM.384, Daptomycin resistant mutant (14-A); assay type: cell-based; details: MHBc with 50 mg/L calcium, 18-20 hours at 37° C.
Method: as §1, §2

[5] = test system: Staphylococcus aureus SAU.278, Daptomycin resistant mutant (D10); assay type: cell-based; details: MHBc with 50 mg/L calcium, 18-20 hours at 37° C.
Method: as §1, §2

[6] = test system: Staphylococcus aureus SAU.399 (ATCC 43300), Methicillin and Oxacillin Resistant; assay type: cell-based
Method: as §1, §2

[7] = test system: Staphylococcus aureus SAU.42 (ATCC 29213); assay type: cell-based
Method: as §1, §2

[8] = MHBc with 50 mg/L calcium, 18-20 hours at 37° C.

Structure (SMILES) | Efs201 MIC ([1]; ATCC 49452) | Efs312 MIC [2] | Efm14 MIC ([3]; ATCC 6569) | Efm384 MIC [4] | Sa278 MIC [5] | Sa399 MIC ([6]; ATCC 43300) | Sa42 MIC ([7]; ATCC 29213) | C. diff MIC90 (Clostridium difficile) | Efs201 MIC [1, 8] | Efm14 MIC [3, 8] | Sa399 MIC [6, 8] | Sa42 MIC [7, 8]
CCc1ccc(CCC(=O)N[C@@H](Cc2c[nH]c3ccccc23)C(=O)N[C@H](CC(N)=O)C(=O)N[C@@H](CC(=O)O)C(=O)N[C@@H]2C(=O)NCC(=O)N[C@@H](CCCN)C(=O)N[C@@H](CC(=O)O)C(=O)N[C@H](C)C(=O)N[C@@H](CC(=O)O)C(=O)NCC(=O)N[C@H](CO)C(=O)N[C@@H]([C@H](C)CC(=O)O)C(=O)N[C@@H](CC(=O)c3ccccc3N)C(=O)O[C@@H]2C)cc1 [Compound 29] | >32 mg/L | >32 mg/L | >32 mg/L | >32 mg/L | >32 mg/L | 8 mg/L | 8 mg/L | 16 mg/L | – | – | – | –
C[C@H](CC(=O)O)[C@@H]1NC(=O)[C@@H](CO)NC(=O)CNC(=O)[C@H](CC(=O)O)NC(=O)[C@@H](C)NC(=O)[C@H](CC(=O)O)NC(=O)[C@H](CCCN)NC(=O)CNC(=O)[C@@H](NC(=O)[C@H](CC(=O)O)NC(=O)[C@@H](CC(N)=O)NC(=O)[C@H](Cc2c[nH]c3ccccc23)NC(=O)CCCCC2CCCCC2)[C@@H](C)OC(=O)[C@H](CC(=O)c2ccccc2N)NC1=O [Compound 24] | 2 mg/L | >32 mg/L | 4 mg/L | 32 mg/L | 8 mg/L | 1 mg/L | 1 mg/L | 4 mg/L | – | – | – | –
CCCCCCC1CCC(c2ccc(C(=O)N[C@@H](Cc3c[nH]c4ccccc34)C(=O)N[C@H](CC(N)=O)C(=O)N[C@@H](CC(=O)O)C(=O)N[C@@H]3C(=O)NCC(=O)N[C@@H](CCCN)C(=O)N[C@@H](CC(=O)O)C(=O)N[C@H](C)C(=O)N[C@@H](CC(=O)O)C(=O)NCC(=O)N[C@H](CO)C(=O)N[C@@H]([C@H](C)CC(=O)O)C(=O)N[C@@H](CC(=O)c4ccccc4N)C(=O)O[C@@H]3C)cc2)CC1 (single isomer, unassigned) [54 isomer II] | 2 mg/L | – | 1 mg/L | – | – | 1 mg/L | 1 mg/L | 4 mg/L | – | – | – | –
CC(C)Sc1ccc(-c2csc(C(=O)N[C@@H](Cc3c[nH]c4ccccc34)C(=O)N[C@H](CC(N)=O)C(=O)N[C@@H](CC(=O)O)C(=O)N[C@@H]3C(=O)NCC(=O)N[C@@H](CCCN)C(=O)N[C@@H](CC(=O)O)C(=O)N[C@H](C)C(=O)N[C@@H](CC(=O)O)C(=O)NCC(=O)N[C@H](CO)C(=O)N[C@@H]([C@H](C)CC(=O)O)C(=O)N[C@@H](CC(=O)c4ccccc4N)C(=O)O[C@@H]3C)c2)cc1 [Compound 55] | 2 mg/L | >32 mg/L | 2 mg/L | 8 mg/L | 4 mg/L | 0.25 mg/L | 0.5 mg/L | – | – | – | – | –
CCCCCCCC(C)C(=O)N[C@@H](Cc1c[nH]c2ccccc12)C(=O)N[C@H](CC(N)=O)C(=O)N[C@@H](CC(=O)O)C(=O)N[C@@H]1C(=O)NCC(=O)N[C@@H](CCCN)C(=O)N[C@@H](CC(=O)O)C(=O)N[C@H](C)C(=O)N[C@@H](CC(=O)O)C(=O)NCC(=O)N[C@H](CO)C(=O)N[C@@H]([C@H](C)CC(=O)O)C(=O)N[C@@H](CC(=O)c2ccccc2N)C(=O)O[C@@H]1C (stereo partly drawn) [Compound 13] | 16 mg/L | >32 mg/L | 16 mg/L | >32 mg/L | 32 mg/L | 1 mg/L | 2 mg/L | – | – | – | – | –
CCCCCCOc1ccc(/C=C/C(=O)N[C@@H](Cc2c[nH]c3ccccc23)C(=O)N[C@H](CC(N)=O)C(=O)N[C@@H](CC(=O)O)C(=O)N[C@@H]2C(=O)NCC(=O)N[C@@H](CCCN)C(=O)N[C@@H](CC(=O)O)C(=O)N[C@H](C)C(=O)N[C@@H](CC(=O)O)C(=O)NCC(=O)N[C@H](CO)C(=O)N[C@@H]([C@H](C)CC(=O)O)C(=O)N[C@@H](CC(=O)c3ccccc3N)C(=O)O[C@@H]2C)cc1 [Compound 42] | – | – | – | 8 mg/L | 4 mg/L | – | – | 0.5 mg/L | 1 mg/L | 2 mg/L | 1 mg/L | 0.5 mg/L

From patent publication US20150337013A1, “NOVEL ANTIBACTERIAL AGENTS FOR THE TREATMENT OF GRAM POSITIVE INFECTIONS” (priority 2008, published 2015)
